Measurements reported in ChEMBL document CHEMBL1165863, “Lipophilicity of novel antitumour and analgesic active 8-aryl-2,6,7,8-tetrahydroimidazo[2,1-c][1,2,4]triazine-3,4-dione derivatives determined by reversed-phase HPLC and computational methods” (Eur J Med Chem, 2010).

What was measured:
[1] = Lipophilicity, Log p by HPLC; type: physicochemical
Mus musculus = assay: (§1) Toxicity in ip dosed mouse; type: organism-based; settings: in vivo
[2] = as §1; type: organism-based; settings: in vivo

Compound	logP [1]	log(1/LD50) (Mus musculus)	LD50 [2]	LD (Mus musculus)
Cc1ccccc1N1CCn2c1n[nH]c(=O)c2=O	1.16			
O=c1[nH]nc2n(c1=O)CCN2c1cccc(Cl)c1	2	-3.3	2000 mg/kg	
COc1ccc(N2CCn3c2n[nH]c(=O)c3=O)cc1	1.21	-3.18		
O=c1[nH]nc2n(c1=O)CCN2c1ccc(Cl)c(Cl)c1	2.63			
Cc1ccc(N2CCn3c2n[nH]c(=O)c3=O)cc1	1.84	-3.25		
O=c1[nH]nc2n(c1=O)CCN2c1ccccc1	1.31	-3.15		
O=c1[nH]nc2n(c1=O)CCN2c1ccc(Cl)cc1	1.99	-3.3		2000 mg/kg
COc1ccccc1N1CCn2c1n[nH]c(=O)c2=O	0.97	-3.04		
